Measured values as given in US8173689B2 (Novartis AG, priority 2006, dated 2012).
Where two headings read alike, the source gives them in different places.

Legend:
[1] = molecular target: T1, cytoplasmic domain of the human CSF-1R (Homo sapiens, UniProt P07333); experiment: In vitro kinase assay for colony stimulating factor-1 receptor (AlphaScreen); format: biochemical; details: tested at about 1 μM; for inhibition at 1 µM: read-out: CSF-1R percent inhibition
T1 construct: Recombinant protein corresponding to the cytoplasmic domain of the human CSF-1R; purchased Invitrogen Corporation, Carlsbad, Calif; PV3249
T1 sequence (P07333 539-972 limits assumed): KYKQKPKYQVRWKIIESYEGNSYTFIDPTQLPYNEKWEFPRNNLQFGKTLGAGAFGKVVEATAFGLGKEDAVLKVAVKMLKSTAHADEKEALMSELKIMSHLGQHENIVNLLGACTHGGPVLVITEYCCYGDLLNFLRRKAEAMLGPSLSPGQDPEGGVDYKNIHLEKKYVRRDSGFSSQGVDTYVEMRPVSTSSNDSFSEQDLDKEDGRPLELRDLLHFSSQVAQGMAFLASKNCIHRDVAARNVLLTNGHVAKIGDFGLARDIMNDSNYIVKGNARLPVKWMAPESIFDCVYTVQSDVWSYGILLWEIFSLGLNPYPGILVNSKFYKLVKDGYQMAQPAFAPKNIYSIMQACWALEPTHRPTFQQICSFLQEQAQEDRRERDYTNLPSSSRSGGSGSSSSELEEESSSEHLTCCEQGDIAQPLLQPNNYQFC
Description: The kinase activity of various protein tyrosine kinases can be measured by providing ATP and a suitable peptide or protein tyrosine-containing substrate, and assaying the transfer of phosphate moiety to the tyrosine residue. Recombinant protein corresponding to the cytoplasmic domain of the human CSF-1R was purchased from Invitrogen Corporation, Carlsbad, Calif. U.S.A. (#PV3249). For each assay, test compounds were serially diluted, starting at 25 μM with 3 fold dilutions, in DMSO in 384 well plates then mixed with an appropriate kinase reaction buffer consisting of 50 mM Hepes, 5 mM MgCl2, 10 mM MnCl2, 0.1% BSA, pH 7.5, 1.0 mM dithiothreitol, 0.01% Tween 80 plus 1 μM ATP. […] Added to the stopped reaction mix was 30 μL of PT66 Alphascreen beads (Perkin Elmer, Boston, Mass., U.S.A.). The reaction was incubated overnight and read on the Envision (Perkin Elmer). Phosphorylated peptide product was measured with the AlphaScreen system (Perkin Elmer) using acceptor beads coated with anti-phosphotyrosine antibody PT66 and donor beads coated with streptavidin that emit a fluorescent signal at the 520-620 nm emission wave length if in close proximity.
CSF-1R kinase was added at final concentration of 4 nM.

kinase domain of cKIT = molecular target: T2, kinase domain of cKIT (Homo sapiens, UniProt P10721); experiment: Inhibition of cKIT kinase signaling in an in vitro biochemical assay (alphascreen); details: tested at about 1 μM; for inhibition at 1 µM: read-out: cKit percent inhibition
T2 construct: The kinase domain of cKIT was assayed in 50 mM Hepes; purchased Upstate 14-559
Description: (§1) The IC50 values for the inhibition of RTKs were determined in the alphascreen format measuring the inhibition by compound of phosphate transfer to a substrate by the respective enzyme. Briefly, the respective RTK domain purchased as human recombinant protein (cKIT Upstate #14-559, PDGFRb Invitrogen #P3082) were incubated with serial dilutions of compound in the presence of substrate and ATP concentrations within 3 times the Km of the enzyme.
(§2) Alphascreen PY20 beads were added to the stopped cKIT reactions and PY20 Ab/Protein A Alphascreen beads were added to the PDGFRβ stopped reactions. Both reactions were incubated overnight and read on the Alphascreen reader.

kinase domain of PDGFRβ = molecular target: T3, kinase domain of PDGFRβ (Homo sapiens, UniProt P09619); experiment: Inhibition of PDGFRb kinase signaling in an in vitro biochemical assay (alphascreen); details: tested at about 1 μM; for inhibition at 1 µM: read-out: PDGFRβ percent inhibition
T3 construct: The kinase domain of PDGFRβ was assayed in 50 mM Hepes; purchased Invitrogen P3082
Description: as §1, §2

T2 sequence (P10721 589-937 limits assumed): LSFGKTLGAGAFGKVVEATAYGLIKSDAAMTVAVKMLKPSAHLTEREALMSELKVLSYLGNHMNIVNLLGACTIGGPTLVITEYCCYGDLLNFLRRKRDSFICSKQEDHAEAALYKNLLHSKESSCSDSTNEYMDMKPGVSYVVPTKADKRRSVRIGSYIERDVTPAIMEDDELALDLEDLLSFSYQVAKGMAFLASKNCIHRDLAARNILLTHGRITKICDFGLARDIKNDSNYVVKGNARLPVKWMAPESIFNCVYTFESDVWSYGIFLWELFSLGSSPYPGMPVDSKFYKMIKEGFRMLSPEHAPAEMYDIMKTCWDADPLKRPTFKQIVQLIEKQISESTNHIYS
T3 sequence (P09619 600-962 limits assumed): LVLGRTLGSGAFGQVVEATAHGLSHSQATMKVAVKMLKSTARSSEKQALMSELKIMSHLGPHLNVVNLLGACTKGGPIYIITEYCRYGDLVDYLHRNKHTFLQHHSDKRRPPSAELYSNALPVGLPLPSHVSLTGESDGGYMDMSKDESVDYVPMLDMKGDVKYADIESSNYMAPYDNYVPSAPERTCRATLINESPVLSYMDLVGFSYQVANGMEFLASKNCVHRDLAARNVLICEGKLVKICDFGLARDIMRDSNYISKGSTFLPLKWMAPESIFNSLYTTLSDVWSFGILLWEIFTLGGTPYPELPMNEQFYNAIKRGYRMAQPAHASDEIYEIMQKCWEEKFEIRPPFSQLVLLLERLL

Q: For CNC(=O)c1cc(Oc2ccc3nc(NC4CCCC(NC(C)=O)C4)sc3c2)ccn1 (stereo not drawn) [Example 296, 4-(2-(3-acetamidocyclohexylamino)benzo[d]thiazol-6-yloxy)-N-methylpicolinamide], which inhibition at 1 µM ([1]; compounds of Table 3) is on record?
A: 97%

Q: What about the inhibition at 1 µM (kinase domain of cKIT; compounds of Table 3) of the same compound?
A: 1%

Q: What about the inhibition at 1 µM (kinase domain of PDGFRβ; compounds of Table 3) of the same compound?
A: 9%

Q: How did the inhibition at 1 µM [1] turn out when CNC(=O)c1cc(Oc2ccc3nc(N[C@@H]4CCN(C(C)=O)C4)sc3c2)ccn1 [Example 303, (R)-4-(2-(1-acetylpyrrolidin-3-ylamino)benzo[d]thiazol-6-yloxy)-N-methylpicolinamide] was run?
A: 74%

Q: What about the inhibition at 1 µM (kinase domain of cKIT) of the same compound?
A: 24%

Q: What about the inhibition at 1 µM (kinase domain of PDGFRβ) of the same compound?
A: 12%

Q: For CNC(=O)c1cc(Oc2ccc3nc(N[C@H](C(=O)OC)c4ccccc4)oc3c2)ccn1 [Compound 55, (S)-[6-(2-Methylcarbamoyl-pyridin-4-yloxy)-benzooxazol-2-ylamino]-phenyl-acetic acid methyl ester], which inhibition at 1 µM [1] is on record?
A: 97%

Q: And the inhibition at 1 µM (kinase domain of cKIT)?
A: 21%

Q: What about the inhibition at 1 µM (kinase domain of PDGFRβ) of the same compound?
A: 11%

Q: Which results are given for CN(C)C(=O)c1cc(Oc2ccc3nc(N[C@@H]4CCCC[C@H]4O)sc3c2)ccn1 [Compound 10]?
A: inhibition at 1 µM ([1]; compounds of Table 3): 67%; inhibition at 1 µM (kinase domain of cKIT; compounds of Table 3): 0%; inhibition at 1 µM (kinase domain of PDGFRβ; compounds of Table 3): 9%

Q: With CNC(=O)c1cc(Oc2ccc3nc(NCC4CN(Cc5ccccc5)CCO4)oc3c2)ccn1 (stereo not drawn) [Compound 120, 4-{2-[(4-Benzyl-morpholin-2-ylmethyl)-amino]-benzooxazol-6-yloxy}-pyridine-2-carboxylic acid methylamide] as the compound, how does the inhibition at 1 µM [1] read?
A: 75%

Q: What about the inhibition at 1 µM (kinase domain of cKIT) of the same compound?
A: 5%

Q: What about the inhibition at 1 µM (kinase domain of PDGFRβ) of the same compound?
A: 0%

Q: For CNC(=O)c1cc(Oc2ccc3nc(N[C@H]4CCCC[C@H]4NC(=O)[C@H]4CCCO4)sc3c2)ccn1 [Example 309, N-methyl-4-(2-((1S,2R)-2-((R)-tetrahydrofuran-2-carboxamido)cyclohexylamino)benzo[d]thiazol-6-yloxy)picolinamide], which inhibition at 1 µM [1] is on record?
A: 74%

Q: What about the inhibition at 1 µM (kinase domain of cKIT) of the same compound?
A: 6%

Q: What about the inhibition at 1 µM (kinase domain of PDGFRβ) of the same compound?
A: 13%

Q: What does the source list for N#Cc1cc(Oc2ccc3nc(N[C@@H]4CCCC[C@H]4O)sc3c2)ccn1 [Example 226, 4-(2-((1R,2R)-2-hydroxycyclohexylamino)benzo[d]thiazol-6-yloxy)picolinonitrile]?
A: inhibition at 1 µM ([1]; compounds of Table 3): 80%; inhibition at 1 µM (kinase domain of cKIT; compounds of Table 3): 20%; inhibition at 1 µM (kinase domain of PDGFRβ; compounds of Table 3): 0%

Q: For Cn1nccc1-c1cnccc1Oc1ccc2nc(N[C@@H]3CCCC[C@H]3O)sc2c1 [Example 191], which inhibition at 1 µM ([1]; compounds of Table 3) is on record?
A: 45%

Q: And the inhibition at 1 µM (kinase domain of cKIT; compounds of Table 3)?
A: 19%

Q: And the inhibition at 1 µM (kinase domain of PDGFRβ; compounds of Table 3)?
A: 15%

Q: How did the inhibition at 1 µM [1] turn out when c1cc(Oc2ccc3nc(NCC4CCCCC4)oc3c2)cc(-c2nnco2)n1 [Compound 81, Cyclohexylmethyl-[6-(2-[1,3,4]oxadiazol-2-yl-pyridin-4-yloxy)-benzooxazol-2-yl]-amine] was run?
A: 54%

Q: What about the inhibition at 1 µM (kinase domain of cKIT) of the same compound?
A: 16%

Q: And the inhibition at 1 µM (kinase domain of PDGFRβ)?
A: 0%

Q: How did the inhibition at 1 µM [1] turn out when CNC(=O)c1cc(Oc2ccc3nc(NC4CCN(Cc5ccccc5)CC4)oc3c2)ccn1 [Compound 103, 4-[2-(1-Benzyl-piperidin-4-ylamino)-benzooxazol-6-yloxy]-pyridine-2-carboxylic acid methylamide] was run?
A: 60%

Q: What about the inhibition at 1 µM (kinase domain of cKIT) of the same compound?
A: 8%

Q: And the inhibition at 1 µM (kinase domain of PDGFRβ)?
A: 14%

Q: With CNC(=O)c1cnccc1Oc1ccc2nc(N[C@@H]3CCCC[C@H]3O)sc2c1 [Example 291, 4-(2-((1R,2R)-2-hydroxycyclohexylamino)benzo[d]thiazol-6-yloxy)-N-methylnicotinamide] as the compound, how does the inhibition at 1 µM ([1]; compounds of Table 3) read?
A: 48%

Q: What about the inhibition at 1 µM (kinase domain of cKIT; compounds of Table 3) of the same compound?
A: 4%

Q: What about the inhibition at 1 µM (kinase domain of PDGFRβ; compounds of Table 3) of the same compound?
A: 0%

Q: With CNC(=O)c1cc(Oc2ccc3nc(NCCN4CCCCC4)oc3c2)ccn1 [Compound 64, 4-[2-(2-Piperidin-1-yl-ethyl-amino)-benzooxazol-6-yloxy]-pyridine-2-carboxylic acid methylamide] as the compound, how does the inhibition at 1 µM [1] read?
A: 77%

Q: What about the inhibition at 1 µM (kinase domain of cKIT) of the same compound?
A: 0%

Q: What about the inhibition at 1 µM (kinase domain of PDGFRβ) of the same compound?
A: 21%

Q: Which inhibition at 1 µM ([1]; compounds of Table 3) does the source give for CNC(=O)c1cc(Oc2ccc3nc(N[C@H]4CCCC[C@H]4N)sc3c2)ccn1 [Example 292, 4-(2-((1S,2R)-2-aminocyclohexylamino)benzo[d]thiazol-6-yloxy)-N-methylpicolinamide] here?
A: 95%

Q: What about the inhibition at 1 µM (kinase domain of cKIT; compounds of Table 3) of the same compound?
A: 3%

Q: What about the inhibition at 1 µM (kinase domain of PDGFRβ; compounds of Table 3) of the same compound?
A: 0%

Q: What does the source list for CNC(=O)c1cc(Oc2ccc3nc(N[C@H]4CCCC[C@H]4NC(=O)[C@@H]4CCCN4C)sc3c2)ccn1 [Example 313, N-methyl-4-(2-((1S,2R)-2-((S)-1-methylpyrrolidine-2-carboxamido)cyclohexylamino)benzo[d]thiazol-6-yloxy)picolinamide]?
A: inhibition at 1 µM [1]: 52%; inhibition at 1 µM (kinase domain of cKIT): 23%; inhibition at 1 µM (kinase domain of PDGFRβ): 2%

Q: Which inhibition at 1 µM [1] does the source give for CNC(=O)c1cc(Oc2ccc3nc(N[C@H]4CCCNC4)sc3c2)ccn1 [Example 332, (S)-N-methyl-4-(2-(piperidin-3-ylamino)benzo[d]thiazol-6-yloxy)picolinamide] here?
A: 48%

Q: What about the inhibition at 1 µM (kinase domain of cKIT) of the same compound?
A: 38%

Q: What about the inhibition at 1 µM (kinase domain of PDGFRβ) of the same compound?
A: 10%

Q: Which results are given for CNC(=O)c1cc(Oc2ccc3nc(N[C@@H]4CCCN(C(C)=O)C4)sc3c2)ccn1 [Example 302, (R)-4-(2-(1-acetylpiperidin-3-ylamino)benzo[d]thiazol-6-yloxy)-N-methylpicolinamide]?
A: inhibition at 1 µM [1]: 68%; inhibition at 1 µM (kinase domain of cKIT): 20%; inhibition at 1 µM (kinase domain of PDGFRβ): 0%

Q: CNC(=O)c1cc(Oc2ccc3nc(N[C@H]4CC[C@@H](NC(=O)c5ccccc5)CC4)sc3c2)ccn1 [Compound 135] was tested. Which inhibition at 1 µM ([1]; compounds of Table 3) did it give?
A: 75%

Q: What about the inhibition at 1 µM (kinase domain of cKIT; compounds of Table 3) of the same compound?
A: 21%

Q: What about the inhibition at 1 µM (kinase domain of PDGFRβ; compounds of Table 3) of the same compound?
A: 11%

Q: Which results are given for CNC(=O)c1cc(Oc2ccc3nc(NCc4c(F)cccc4Cl)oc3c2)ccn1 [Compound 78, 4-[2-(2-Chloro-6-fluoro-benzylamino)-benzooxazol-6-yloxy]-pyridine-2-carboxylic acid methylamide]?
A: inhibition at 1 µM [1]: 87%; inhibition at 1 µM (kinase domain of cKIT): 9%; inhibition at 1 µM (kinase domain of PDGFRβ): 0%

Q: Which inhibition at 1 µM [1] does the source give for CNC(=O)c1cc(Oc2ccc3nc(N[C@H](CO)c4ccccc4)oc3c2)ccn1 [Compound 56, 4-[2-((S)-2-Hydroxy-1-phenyl-ethylamino)-benzooxazol-6-yloxy]-pyridine-2-carboxylic acid methylamide] here?
A: 66%

Q: What about the inhibition at 1 µM (kinase domain of cKIT) of the same compound?
A: 55%

Q: And the inhibition at 1 µM (kinase domain of PDGFRβ)?
A: 0%

Q: With CNC(=O)c1cc(Oc2ccc3nc(NCc4cccnc4)oc3c2)ccn1 [Compound 59, 4-{2-[(Pyridin-3-ylmethyl)-amino]-benzooxazol-6-yloxy}-pyridine-2-carboxylic acid methylamide] as the compound, how does the inhibition at 1 µM [1] read?
A: 97%

Q: And the inhibition at 1 µM (kinase domain of cKIT)?
A: 21%

Q: What about the inhibition at 1 µM (kinase domain of PDGFRβ) of the same compound?
A: 0%

Q: For “4-(2-Cyclobutylamino- benzooxazol-6-yloxy)- pyridine-2-carboxylic acid methylamide [Compound 22]”, which CSF-1R percent inhibition ([1]; compounds of Table 4) is on record?
A: 100%

Q: What about the cKit percent inhibition (kinase domain of cKIT; compounds of Table 4) of the same compound?
A: 89%

Q: What about the PDGFRβ percent inhibition (kinase domain of PDGFRβ; compounds of Table 4) of the same compound?
A: 90%

Q: With CNC(=O)c1cc(Oc2ccc3nc(NC4CCCC(N)C4)sc3c2)ccn1 (stereo not drawn) [Example 294, 4-(2-(3-aminocyclohexylamino)benzo[d]thiazol-6-yloxy)-N-methylpicolinamide] as the compound, how does the inhibition at 1 µM ([1]; compounds of Table 3) read?
A: 87%

Q: What about the inhibition at 1 µM (kinase domain of cKIT; compounds of Table 3) of the same compound?
A: 1%

Q: What about the inhibition at 1 µM (kinase domain of PDGFRβ; compounds of Table 3) of the same compound?
A: 0%

Q: With O=C(O)c1cc(Oc2ccc3nc(NCC4CCCCC4)oc3c2)ccn1 [Compound 60, 4-[2-(Cyclohexylmethyl-amino)-benzooxazol-6-yloxy]-pyridine-2-carboxylic acid] as the compound, how does the inhibition at 1 µM [1] read?
A: 92%

Q: What about the inhibition at 1 µM (kinase domain of cKIT) of the same compound?
A: 6%

Q: And the inhibition at 1 µM (kinase domain of PDGFRβ)?
A: 2%
